Test results published in patent US20070049564A1 (Wyeth, priority 2005, published 2007).
Values after ≈ are worked out from the molar mass of the structure shown.

How the values were obtained:
Experiment in all cases: MIC, broth microdilution
E. coli GC 2203 = conditions: Escherichia coli
S. pneumoniae* GC 4465 = conditions: Streptococcus pneumoniae
Experimental: Antimicrobial susceptibility testing. The in vitro activities of the antibiotics are determined by the broth microdilution method as recommended by the National Committee for Clinical Laboratory Standards (NCCLS) (1). Mueller-Hinton II broth (MHBII)(BBL Cockeysville, Md.) is the medium employed in the testing procedures. Microtiter plates containing serial dilutions of each antimicrobial agent are inoculated with each organism to yield the appropriate density (10^5 CFU/ml) in a 100 μl final volume. The plates are incubated for 18-22 hours at 35° C. in ambient air.
Representative compounds were first incubated in mouse serum for an hour prior to the in vitro testing against a panel of selected gram-positive and gram-negative bacteria strains. All compounds were also pre-incubated in water for an hour prior to testing as control. Representative compounds of Formula I were incubated in human serum prior to MIC determination.

E. coli GC 2270 = conditions: Escherichia coli
E. coli GC 2271 = conditions: Escherichia coli
E. coli GC 4560 = conditions: Escherichia coli
S. aureus GC 6467 = conditions: Staphylococcus aureus
E. faecalis GC 2242 = conditions: Enterococcus faecalis
E. coli GC 2235 = conditions: Escherichia coli
E. faecium GC 4556 = conditions: Enterococcus faecium
S. aureus GC 6335 = conditions: Staphylococcus aureus
S. agalactiae GC 4564 = conditions: Streptococcus agalactiae
S. aureus GC 2216 = conditions: Staphylococcus aureus
P. aeruginosa GC 2214 = conditions: Pseudomonas aeruginosa
E. coli GC 2232 = conditions: Escherichia coli
E. faecalis GC 2267 = conditions: Enterococcus faecalis
S. typhimurium GC 2172 = conditions: Salmonella enterica, TYPHIMURIUM
E. coli GC 2231 = conditions: Escherichia coli
E. coli GC 4559 = conditions: Escherichia coli
E. coli GC 3226 = conditions: Escherichia coli

`CN(C)c1cc(NC(=O)CN(C(=O)OCOC(=O)C2CCC2)C(C)(C)C)c(O)c2c1C[C@H]1C[C@H]3[C@H](N(C)C)C(O)=C(C(N)=O)C(=O)[C@@]3(O)C(O)=C1C2=O` [Example 62, ({[(2-{[(5aR,6aS,7S,10aS)-9-(aminocarbonyl)-4,7-bis(dimethylamino)-1,8,10a,11-tetrahydroxy-10,12-dioxo-5,5a,6,6a,7,10,10a,12-octahydrotetracen-2-yl]amino}-2-oxoethyl)(tert-butyl)amino]carbonyl}oxy)methyl cyclobutanecarboxylate] showed an MIC (E. coli GC 2203; GC2203, pre-incubation in human serum) of 4 µg/mL (≈ 5.39 µM), an MIC (E. coli GC 2203; GC2203, pre-incubation in mouse serum) of 1 µg/mL (≈ 1.35 µM) and an MIC (E. coli GC 2203; GC2203, pre-incubation in water) of 16 µg/mL (≈ 21.6 µM). It also gave an MIC (S. pneumoniae* GC 4465; pre-incubation in human serum) of 0.12 µg/mL (≈ 0.162 µM), an MIC (S. pneumoniae* GC 4465; pre-incubation in mouse serum) of 0.12 µg/mL (≈ 0.162 µM) and an MIC (S. pneumoniae* GC 4465; pre-incubation in water) of 0.12 µg/mL (≈ 0.162 µM). The MIC (E. coli GC 2270; GC2270, pre-incubation in human serum) was 2 µg/mL (≈ 2.7 µM), the MIC (E. coli GC 2270; GC2270, pre-incubation in mouse serum) was 0.5 µg/mL (≈ 0.674 µM) and the MIC (E. coli GC 2270; GC2270, pre-incubation in water) was 8 µg/mL (≈ 10.8 µM). The MIC (E. coli GC 2271; GC2271, pre-incubation in human serum) was 2 µg/mL (≈ 2.7 µM), the MIC (E. coli GC 2271; GC2271, pre-incubation in mouse serum) was 1 µg/mL (≈ 1.35 µM) and the MIC (E. coli GC 2271; GC2271, pre-incubation in water) was 4 µg/mL (≈ 5.39 µM). For the same compound, the MIC (E. coli GC 4560; GC4560, pre-incubation in human serum) was 0.5 µg/mL (≈ 0.674 µM), the MIC (E. coli GC 4560; GC4560, pre-incubation in mouse serum) was 0.25 µg/mL (≈ 0.337 µM) and the MIC (E. coli GC 4560; GC4560, pre-incubation in water) was 0.5 µg/mL (≈ 0.674 µM). It also gave an MIC (S. aureus GC 6467; GC6467, pre-incubation in human serum) of 0.5 µg/mL (≈ 0.674 µM), an MIC (S. aureus GC 6467; GC6467, pre-incubation in mouse serum) of 1 µg/mL (≈ 1.35 µM) and an MIC (S. aureus GC 6467; GC6467, pre-incubation in water) of 0.5 µg/mL (≈ 0.674 µM). The MIC (E. faecalis GC 2242; GC2242, pre-incubation in human serum) was 0.5 µg/mL (≈ 0.674 µM), the MIC (E. faecalis GC 2242; GC2242, pre-incubation in mouse serum) was 0.5 µg/mL (≈ 0.674 µM) and the MIC (E. faecalis GC 2242; GC2242, pre-incubation in water) was 0.5 µg/mL (≈ 0.674 µM). The MIC (E. coli GC 2235; GC2235, pre-incubation in human serum) was 2 µg/mL (≈ 2.7 µM), the MIC (E. coli GC 2235; GC2235, pre-incubation in mouse serum) was 0.5 µg/mL (≈ 0.674 µM) and the MIC (E. coli GC 2235; GC2235, pre-incubation in water) was 4 µg/mL (≈ 5.39 µM). It also gave an MIC (E. faecium GC 4556; GC4556, pre-incubation in human serum) of 1 µg/mL (≈ 1.35 µM), an MIC (E. faecium GC 4556; GC4556, pre-incubation in mouse serum) of 1 µg/mL (≈ 1.35 µM) and an MIC (E. faecium GC 4556; GC4556, pre-incubation in water) of 1 µg/mL (≈ 1.35 µM). For the same compound, the MIC (S. aureus GC 6335; GC6335, pre-incubation in human serum) was 0.5 µg/mL (≈ 0.674 µM), the MIC (S. aureus GC 6335; GC6335, pre-incubation in mouse serum) was 1 µg/mL (≈ 1.35 µM) and the MIC (S. aureus GC 6335; GC6335, pre-incubation in water) was 0.5 µg/mL (≈ 0.674 µM). The MIC (S. agalactiae GC 4564; GC4564, pre-incubation in human serum) was 0.12 µg/mL (≈ 0.162 µM), the MIC (S. agalactiae GC 4564; GC4564, pre-incubation in mouse serum) was 0.25 µg/mL (≈ 0.337 µM) and the MIC (S. agalactiae GC 4564; GC4564, pre-incubation in water) was 0.25 µg/mL (≈ 0.337 µM). The MIC (S. aureus GC 2216; GC2216, pre-incubation in human serum) was 0.5 µg/mL (≈ 0.674 µM), the MIC (S. aureus GC 2216; GC2216, pre-incubation in mouse serum) was 0.5 µg/mL (≈ 0.674 µM) and the MIC (S. aureus GC 2216; GC2216, pre-incubation in water) was 0.5 µg/mL (≈ 0.674 µM). The MIC (P. aeruginosa GC 2214; GC2214, pre-incubation in human serum) was > 64 µg/mL, the MIC (P. aeruginosa GC 2214; GC2214, pre-incubation in mouse serum) was 16 µg/mL (≈ 21.6 µM) and the MIC (P. aeruginosa GC 2214; GC2214, pre-incubation in water) was > 64 µg/mL. The MIC (E. coli GC 2232; GC2232, pre-incubation in human serum) was 2 µg/mL (≈ 2.7 µM), the MIC (E. coli GC 2232; GC2232, pre-incubation in mouse serum) was 1 µg/mL (≈ 1.35 µM) and the MIC (E. coli GC 2232; GC2232, pre-incubation in water) was 8 µg/mL (≈ 10.8 µM). For the same compound, the MIC (E. faecalis GC 2267; GC2267, pre-incubation in human serum) was 0.5 µg/mL (≈ 0.674 µM), the MIC (E. faecalis GC 2267; GC2267, pre-incubation in mouse serum) was 0.5 µg/mL (≈ 0.674 µM) and the MIC (E. faecalis GC 2267; GC2267, pre-incubation in water) was 1 µg/mL (≈ 1.35 µM). The MIC (S. typhimurium GC 2172; pre-incubation in human serum) was 16 µg/mL (≈ 21.6 µM), the MIC (S. typhimurium GC 2172; pre-incubation in mouse serum) was 2 µg/mL (≈ 2.7 µM) and the MIC (S. typhimurium GC 2172; pre-incubation in water) was > 64 µg/mL. It also gave an MIC (E. coli GC 2231; GC2231, pre-incubation in human serum) of 4 µg/mL (≈ 5.39 µM), an MIC (E. coli GC 2231; GC2231, pre-incubation in mouse serum) of 0.5 µg/mL (≈ 0.674 µM) and an MIC (E. coli GC 2231; GC2231, pre-incubation in water) of 8 µg/mL (≈ 10.8 µM). It also gave an MIC (E. coli GC 4559; GC4559, pre-incubation in human serum) of 8 µg/mL (≈ 10.8 µM), an MIC (E. coli GC 4559; GC4559, pre-incubation in mouse serum) of 1 µg/mL (≈ 1.35 µM) and an MIC (E. coli GC 4559; GC4559, pre-incubation in water) of 16 µg/mL (≈ 21.6 µM). For the same compound, the MIC (E. coli GC 3226; GC3226, pre-incubation in human serum) was 4 µg/mL (≈ 5.39 µM), the MIC (E. coli GC 3226; GC3226, pre-incubation in mouse serum) was 1 µg/mL (≈ 1.35 µM) and the MIC (E. coli GC 3226; GC3226, pre-incubation in water) was 8 µg/mL (≈ 10.8 µM).
